“And” between values parts separate entries of the source, which are not always exact repeats. Equal entries are not always repeated.
What was measured:
Assay in all cases: Postemergent herbicidal activity, greenhouse
Type in all cases: in vivo
[1] = system: AMARE Amaranthus retroflexus L. (redroot pigweed)
Protocol: (§1) Evaluation of Postemergent Herbicidal Activity. Seeds or nutlets of the desired test plant species were planted in Sun Gro Metro-Mix® 360 planting mixture, which typically has a pH of 6.0 to 6.8 and an organic matter content of about 30 percent, in plastic pots with a surface area of 64 square centimeters (cm^2). When required to ensure good germination and healthy plants, a fungicide treatment and/or other chemical or physical treatment was applied. The plants were grown for 7-21 days (d) in a greenhouse with an approximate 15 hour (h) photoperiod which was maintained at about 23-29° C. during the day and 22-28° C. during the night. Nutrients and water were added on a regular basis and supplemental lighting was provided with overhead metal halide 1000-Watt lamps as necessary. The plants were employed for testing when they reached the first or second true leaf stage.
(§2) A weighed amount, determined by the highest rate to be tested, of each test compound was placed in a 25 milliliter (mL) glass vial and was dissolved in 4 mL of a 97:3 volume per volume (v/v) mixture of acetone and dimethyl sulfoxide (DMSO) to obtain concentrated stock solutions. […] The concentrated stock solutions obtained were diluted with 20 mL of an aqueous mixture containing acetone, water, isopropyl alcohol, DMSO, Atplus 411F crop oil concentrate, and Triton® X-155 surfactant in a 48.5:39:10:1.5:1.0:0.02 v/v ratio to obtain spray solutions containing the highest application rates. Additional application rates were obtained by serial dilution of 12 mL of the high rate solution into a solution containing 2 mL of a 97:3 v/v mixture of acetone and DMSO and 10 mL of an aqueous mixture containing acetone, water, isopropyl alcohol, DMSO, Atplus 411F crop oil concentrate, and Triton X-155 surfactant in a 48.5:39:10:1.5:1.0:0.02 v/v ratio to obtain ½X, ¼X, ⅛X and 1/16X rates of the high rate. Compound requirements are based upon a 12 mL application volume at a rate of 187 liters per hectare (L/ha). Formulated compounds were applied to the plant material with an overhead Mandel track sprayer equipped with 8002E nozzles calibrated to deliver 187 L/ha over an application area of 0.503 square meters (m^2) at a spray height of 18 inches ([…]) above the average plant canopy height. Control plants were sprayed in the same manner with the solvent blank.
(§3) Treatments consisted of the methyl ester of 4-amino-3-chloro-6-(4-chloro-2-fluoro-3-methoxyphenyl)pyridine-2-carboxylic acid (Cmpd 1) as technical grade material and fluazifop-P-butyl (Fusilade® DX), haloxyfop-P-methyl (GALLANT® super), and quizalofop-P-ethyl (Assure® II) alone and in combination. The form of compound of formula (I) and fluazifop-P-butyl, haloxyfop-P-methyl, and quizalofop-P-ethyl were applied on an acid equivalent basis.
(§4) The treated plants and control plants were placed in a greenhouse as described above and watered by subirrigation to prevent wash-off of the test compounds. After 14 d, the condition of the test plants as compared with that of the untreated plants was determined visually and scored on a scale of 0 to 100 percent where 0 corresponds to no injury and 100 corresponds to complete kill.
(§5) Results of testing mixtures in accordance with this disclosure and of the components of the mixtures separately against various common weeds in greenhouse trials are reported in the following tables. The reported values are of percent (%) control or percent (%) injury, visually rated. Colby's equation was used to determine the herbicidal effects expected from the mixtures (Colby, S. R. Calculation of the synergistic and antagonistic response of herbicide combinations. Weeds 1967, 15, 20-22.).
(§6) More specifically, the following equation was used to calculate the expected activity of mixtures containing two active ingredients, A and B:
(§7) A=observed efficacy of active ingredient A at the same concentration as used in the mixture; B=observed efficacy of active ingredient B at the same concentration as used in the mixture. […]

[2] = system: SETFA Setaria faberi Herrm. (giant foxtail)
Protocol: as §1, §2, §3, §4, §5, §6, §7

[3] = system: VIOTR Viola tricolor L. (wild violet)
Protocol: as §1, §2, §3, §4, §5, §6, §7

[4] = system: GLXMA Glycine max (soybean)
Protocol: as §1, §2, §3, §4, §5, §6, §7

[5] = system: DIGSA Digitaria sanguinalis (L.) Scop. (large crabgrass)
Protocol: as §1, §2, §3, §4, §5, §6, §7

[6] = system: CIRAR Cirsium arvense (L.) Scop. (Canada thistle)
Protocol: as §1, §2, §3, §4, §5, §6, §7

[7] = system: CYPES Cyperus esculentus L. (yellow nutsedge)
Protocol: as §1, §2, §3, §4, §5, §6, §7

[8] = system: STEME Stellaria media (L.) Vill. (common chickweed)
Protocol: as §1, §2, §3, §4, §5, §6, §7

[9] = system: CHEAL Chenopodium album L. (common lambsquarters)
Protocol: as §1, §2, §3, §4, §5, §6, §7

[10] = system: AVEFA Avena fatua L. (wild oat)
Protocol: as §1, §2, §3, §4, §5, §6, §7

[11] = system: HELAN Helianthus annuus L. (common sunflower)
Protocol: as §1, §2, §3, §4, §5, §6, §7

[12] = system: IPOHE Ipomoea hederacea (L.) Jacq. (ivyleaf momingglory)
Protocol: as §1, §2, §3, §4, §5, §6, §7

[13] = system: SORVU Sorghum vulgare (common sorghum)
Protocol: as §1, §2, §3, §4, §5, §6, §7

[14] = system: EPHHL Euphorbia heterophylla L. (wild poinsettia)
Protocol: as §1, §2, §3, §4, §5, §6, §7

[15] = system: ABUTH Abutilon theophrasti Medik. (velvetleaf)
Protocol: as §1, §2, §3, §4, §5, §6, §7

[16] = system: BRSNW Brassica napus (winter oilseed rape)
Protocol: as §1, §2, §3, §4, §5, §6, §7

COC(=O)c1nc(-c2ccc(Cl)c(OC)c2F)cc(N)c1Cl [Cmpd 1, methyl ester of 4-amino-3-chloro-6-(4-chloro-2-fluoro-3-methoxyphenyl)pyridine-2-carboxylic acid] was tested, and the “Visual Growth Reduction (%) 14 DAA Obs” value ([1]; Cmpd 1 1.25 g ae/ha) was 50%, the “Visual Growth Reduction (%) 14 DAA Obs” value ([1]; Cmpd 1 2.5 g ae/ha) was 60% and the “Visual Growth Reduction (%) 14 DAA Obs” value ([1]; Cmpd 1 5 g ae/ha) was 90%. For the same compound, the “Visual Growth Reduction (%) 14 DAA Obs” value ([2]; Cmpd 1 1.25 g ae/ha) was 0%, the “Visual Growth Reduction (%) 14 DAA Obs” value ([2]; Cmpd 1 2.5 g ae/ha) was 0% and the “Visual Growth Reduction (%) 14 DAA Obs” value ([2]; Cmpd 1 5 g ae/ha) was 30%. For the same compound, the “Visual Growth Reduction (%) 14 DAA Obs” value ([3]; Cmpd 1 1.25 g ae/ha) was 10%, the “Visual Growth Reduction (%) 14 DAA Obs” value ([3]; Cmpd 1 2.5 g ae/ha) was 10% and the “Visual Growth Reduction (%) 14 DAA Obs” value ([3]; Cmpd 1 5 g ae/ha) was 30%. The “Visual Growth Reduction (%) 14 DAA Obs” value ([4]; Cmpd 1 1.25 g ae/ha) was 70%, the “Visual Growth Reduction (%) 14 DAA Obs” value ([4]; Cmpd 1 2.5 g ae/ha) was 95% and the “Visual Growth Reduction (%) 14 DAA Obs” value ([4]; Cmpd 1 5 g ae/ha) was 97%. The “Visual Growth Reduction (%) 14 DAA Obs” value ([5]; Cmpd 1 1.25 g ae/ha) was 0%, the “Visual Growth Reduction (%) 14 DAA Obs” value ([5]; Cmpd 1 2.5 g ae/ha) was 0% and the “Visual Growth Reduction (%) 14 DAA Obs” value ([5]; Cmpd 1 5 g ae/ha) was 0%. The “Visual Growth Reduction (%) 14 DAA Obs” value ([6]; Cmpd 1 1.25 g ae/ha) was 30%, the “Visual Growth Reduction (%) 14 DAA Obs” value ([6]; Cmpd 1 2.5 g ae/ha) was 50% and 30% and the “Visual Growth Reduction (%) 14 DAA Obs” value ([6]; Cmpd 1 5 g ae/ha) was 30%. For the same compound, the “Visual Growth Reduction (%) 14 DAA Obs” value ([7]; Cmpd 1 1.25 g ae/ha) was 50%, the “Visual Growth Reduction (%) 14 DAA Obs” value ([7]; Cmpd 1 2.5 g ae/ha) was 90% and the “Visual Growth Reduction (%) 14 DAA Obs” value ([7]; Cmpd 1 5 g ae/ha) was 93%. For the same compound, the “Visual Growth Reduction (%) 14 DAA Obs” value ([8]; Cmpd 1 1.25 g ae/ha) was 30%, the “Visual Growth Reduction (%) 14 DAA Obs” value ([8]; Cmpd 1 2.5 g ae/ha) was 20% and the “Visual Growth Reduction (%) 14 DAA Obs” value ([8]; Cmpd 1 5 g ae/ha) was 40%. The “Visual Growth Reduction (%) 14 DAA Obs” value ([9]; Cmpd 1 1.25 g ae/ha) was 70%, the “Visual Growth Reduction (%) 14 DAA Obs” value ([9]; Cmpd 1 2.5 g ae/ha) was 80% and the “Visual Growth Reduction (%) 14 DAA Obs” value ([9]; Cmpd 1 5 g ae/ha) was 93%. The “Visual Growth Reduction (%) 14 DAA Obs” value ([10]; Cmpd 1 1.25 g ae/ha) was 0%, the “Visual Growth Reduction (%) 14 DAA Obs” value ([10]; Cmpd 1 2.5 g ae/ha) was 0% and the “Visual Growth Reduction (%) 14 DAA Obs” value ([10]; Cmpd 1 5 g ae/ha) was 0%. The “Visual Growth Reduction (%) 14 DAA Obs” value ([11]; Cmpd 1 1.25 g ae/ha) was 20%, the “Visual Growth Reduction (%) 14 DAA Obs” value ([11]; Cmpd 1 2.5 g ae/ha) was 20% and the “Visual Growth Reduction (%) 14 DAA Obs” value ([11]; Cmpd 1 5 g ae/ha) was 40%. For the same compound, the “Visual Growth Reduction (%) 14 DAA Obs” value ([12]; Cmpd 1 1.25 g ae/ha) was 10%, the “Visual Growth Reduction (%) 14 DAA Obs” value ([12]; Cmpd 1 2.5 g ae/ha) was 20% and the “Visual Growth Reduction (%) 14 DAA Obs” value ([12]; Cmpd 1 5 g ae/ha) was 20%. The “Visual Growth Reduction (%) 14 DAA Obs” value ([13]; Cmpd 1 1.25 g ae/ha) was 0%, the “Visual Growth Reduction (%) 14 DAA Obs” value ([13]; Cmpd 1 2.5 g ae/ha) was 0% and the “Visual Growth Reduction (%) 14 DAA Obs” value ([13]; Cmpd 1 5 g ae/ha) was 0%. For the same compound, the “Visual Growth Reduction (%) 14 DAA Obs” value ([14]; Cmpd 1 1.25 g ae/ha) was 95%, the “Visual Growth Reduction (%) 14 DAA Obs” value ([14]; Cmpd 1 2.5 g ae/ha) was 95% and the “Visual Growth Reduction (%) 14 DAA Obs” value ([14]; Cmpd 1 5 g ae/ha) was 95%. For the same compound, the “Visual Growth Reduction (%) 14 DAA Obs” value ([15]; Cmpd 1 1.25 g ae/ha) was 80%, the “Visual Growth Reduction (%) 14 DAA Obs” value ([15]; Cmpd 1 2.5 g ae/ha) was 85% and the “Visual Growth Reduction (%) 14 DAA Obs” value ([15]; Cmpd 1 5 g ae/ha) was 90%. For the same compound, the “Visual Growth Reduction (%) 14 DAA Obs” value ([16]; Cmpd 1 1.25 g ae/ha) was 0%, the “Visual Growth Reduction (%) 14 DAA Obs” value ([16]; Cmpd 1 2.5 g ae/ha) was 5% and the “Visual Growth Reduction (%) 14 DAA Obs” value ([16]; Cmpd 1 5 g ae/ha) was 20%.
In the case of COC(=O)[C@@H](C)Oc1ccc(Oc2ncc(C(F)(F)F)cc2Cl)cc1 [Haloxyfop-P, haloxyfop-P-methyl], the “Visual Growth Reduction (%) 14 DAA Obs” value ([1]; Haloxyfop-P 35 g ae/ha) is reported as 0%, the “Visual Growth Reduction (%) 14 DAA Obs” value ([1]; Haloxyfop-P 70 g ae/ha) is reported as 0% and the “Visual Growth Reduction (%) 14 DAA Obs” value ([1]; Haloxyfop-P 140 g ae/ha) is reported as 0%. The “Visual Growth Reduction (%) 14 DAA Obs” value ([3]; Haloxyfop-P 35 g ae/ha) was 0%, the “Visual Growth Reduction (%) 14 DAA Obs” value ([3]; Haloxyfop-P 70 g ae/ha) was 0% and the “Visual Growth Reduction (%) 14 DAA Obs” value ([3]; Haloxyfop-P 140 g ae/ha) was 0%. For the same compound, the “Visual Growth Reduction (%) 14 DAA Obs” value ([7]; Haloxyfop-P 35 g ae/ha) was 0%, the “Visual Growth Reduction (%) 14 DAA Obs” value ([7]; Haloxyfop-P 70 g ae/ha) was 0% and the “Visual Growth Reduction (%) 14 DAA Obs” value ([7]; Haloxyfop-P 140 g ae/ha) was 0%. For the same compound, the “Visual Growth Reduction (%) 14 DAA Obs” value ([8]; Haloxyfop-P 35 g ae/ha) was 0%, the “Visual Growth Reduction (%) 14 DAA Obs” value ([8]; Haloxyfop-P 70 g ae/ha) was 0% and the “Visual Growth Reduction (%) 14 DAA Obs” value ([8]; Haloxyfop-P 140 g ae/ha) was 0%. The “Visual Growth Reduction (%) 14 DAA Obs” value ([9]; Haloxyfop-P 35 g ae/ha) was 0%, the “Visual Growth Reduction (%) 14 DAA Obs” value ([9]; Haloxyfop-P 70 g ae/ha) was 0% and the “Visual Growth Reduction (%) 14 DAA Obs” value ([9]; Haloxyfop-P 140 g ae/ha) was 0%. For the same compound, the “Visual Growth Reduction (%) 14 DAA Obs” value ([12]; Haloxyfop-P 35 g ae/ha) was 0%, the “Visual Growth Reduction (%) 14 DAA Obs” value ([12]; Haloxyfop-P 70 g ae/ha) was 0% and the “Visual Growth Reduction (%) 14 DAA Obs” value ([12]; Haloxyfop-P 140 g ae/ha) was 0%. The “Visual Growth Reduction (%) 14 DAA Obs” value ([16]; Haloxyfop-P 35 g ae/ha) was 0%, the “Visual Growth Reduction (%) 14 DAA Obs” value ([16]; Haloxyfop-P 70 g ae/ha) was 0% and the “Visual Growth Reduction (%) 14 DAA Obs” value ([16]; Haloxyfop-P 140 g ae/ha) was 0%.
